From US5393761A, “3-arylindole compounds” (H. Lundbeck A/S, priority 1990, dated 1995)
pIC50: −log10 of the molar value. Where a name gives a salt, the structure may show the parent alone.

Columns and labels:
[1] = literature (Klieser, Strauss 1988); cited from earlier work
[2] = literature (Colpart et al. 1985); cited from earlier work
[3] = literature (Janssen 1988); cited from earlier work
[4] = literature (Bersani et al. 1990); cited from earlier work
[5] = target: T1, serotonin S2 (5-HT2) receptors in rat cortex (Rattus norvegicus, UniProt P14842); assay: Inhibition of ^3H-ketanserin binding to serotonin S2 (5-HT2) receptors in rat cortex in vitro; settings: 0.5 nM ^3H-ketanserin, rat cortex membranes, 37° C., 30 min
T1 construct: Serotonin S2 (5-HT2) receptors in membranes from rat; from tissue; host or cells: cerebral cortex membranes of male Wistar rats (printed 'conical tissue', a misprint for cortical)
Procedure: Method in Hyttel, Pharmacology & Toxicology, 61, 126-129, 1987.
Male Wistar (Mol:Wist) rats (125-250 g) are sacrificed and conical tissue is dissected and weighed. The tissue is homogenized (Ultra Turrax, 10 sec.) in 10 ml of ice-cold 50 mM tris buffer pH 7.7 (at 25° C.). The centrifuge glassware used in this step has been rinsed by sonication for 10 min. in ethanol. The homogenate is centrifuged twice at 20,000 g for 10 min. at 4° C. with rehomogenization of the pellet in 10 ml ice-cold buffer. The final pellet is homogenized in 500 vol (w/v)ice-cold buffer.
Incubation tubes kept on ice in triplicate receive 100 μl Of drug solution in water (or water for total binding) and 2000 μl of tissue suspension (final tissue content corresponds to 4 mg original tissue). […] After incubation for 30 min. the samples are filtered under vacuum (0-50 mBar) through Whatman GF/F filters (25 mm). The tubes are rinsed with 5 ml ice-cold buffer which are then poured on the filters. Thereafter, the filters are washed with 2×5 ml of buffer. The filters are placed in counting vials and 4 ml of appropriate scintillation fluid (e.g. Picofluor ™15) are added. After shaking for 1 h and storage 2 hrs in the dark the content of radioactivity is determined by liquid scintillation counting. Specific binding is obtained by subtracting the nonspecific binding in the presence of 1 μM mianserin. For determination of the inhibition of binding five concentrations of drugs covering 3 decades are used.
The IC50 value is determined as the concentration at which the binding is 50% of the total binding in control samples minus the nonspecific binding in the presence of 1 μM mianserin.

[6] = target: dopamine D-2 receptors in rat corpus striatum (Rattus norvegicus, UniProt P61169); assay: Inhibition of ^3H-spiperone (spiroperidol) binding to dopamine D-2 receptors in rat corpus striatum in vitro; settings: 0.5 nM ^3H-spiperone, rat striatum membranes, 37° C., 10 min
Procedure: By this method the inhibition by drugs of the binding of ^3 H-spiperone (=^3 H-spiroperidol) (0.5 nM) to dopamine D-2 receptors in membranes from rat corpus striatum is determined in vitro. Method and results in Hyttel & Larsen, J. Neurochem, 44, 1615-1622, 1985).
Male Wistar (Mol:Wistar) rats (125-250 g) are sacrificed and striatal tissue is dissected and weighed. The tissue is homogenized (Ultra Turrax, 10 sec.) in 10 ml of ice-cold 50 mM K-phosphate buffer pH 7.4 (at 25° C.). The homogenate is centrifuged twice at 20,000 g for 10 min. at 4° C. with rehomogenization of the pellet in 10 ml ice-cold buffer. The final pellet is homogenized in 1300 vol (w/v) ice-cold buffer.
Incubation tubes kept on ice in triplicate receive 100 μl of drug solution in water (or water for total binding) and 4000 μl Of tissue suspension (final tissue content corresponds to 3.08 mg original tissue). The binding experimental is initiated by addition of 100 μl of ^3 H-spiperone (final concentration 0.5 nM) and by placing the tubes in a 37° C. water bath. After incubation for 10 min. the samples are filtered under vacuum (0-50 mBar) through Whatman GF/F filters (25 mm). The tubes are rinsed with 5 ml ice-cold buffer which are then poured on the filters. Thereafter, the filters are washed with 2×5 ml of buffer. The filters are placed in counting vials and 4 ml of appropriate scintillation fluid (e.g. Picofluor ™15) are added. After shaking for 1 h and storage 2 hrs in the dark the content of radioactivity is determined by liquid scintillation counting. Specific binding is obtained by subtracting the nonspecific binding in the presence of 10 μM of 6,7-ADTN.
For determination of the inhibition of binding five concentrations of drugs covering 3 decades are used.
The measured cpm are plotted against drug concentration on semilogarithmic paper and the best fitting S-shaped curve is drawn. […] England, specific activity 15-25 Ci/mmol.

[7] = literature (Ceulemans et al. 1985); cited from earlier work

T1 sequence (P14842 whole entry): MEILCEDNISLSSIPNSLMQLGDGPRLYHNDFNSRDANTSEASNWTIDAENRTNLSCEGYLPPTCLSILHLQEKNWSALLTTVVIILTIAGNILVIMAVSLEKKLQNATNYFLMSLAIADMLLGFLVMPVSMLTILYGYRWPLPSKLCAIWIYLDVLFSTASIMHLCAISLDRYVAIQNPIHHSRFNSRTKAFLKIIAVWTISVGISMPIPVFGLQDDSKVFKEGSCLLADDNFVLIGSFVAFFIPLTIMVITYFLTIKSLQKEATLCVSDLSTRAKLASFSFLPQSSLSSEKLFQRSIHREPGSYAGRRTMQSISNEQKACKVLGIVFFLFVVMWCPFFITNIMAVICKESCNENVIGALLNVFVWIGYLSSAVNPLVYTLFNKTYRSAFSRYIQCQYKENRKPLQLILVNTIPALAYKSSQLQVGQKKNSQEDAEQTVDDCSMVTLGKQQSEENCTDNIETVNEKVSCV
dopamine D-2 receptors in rat corpus striatum, sequence (P61169 whole entry): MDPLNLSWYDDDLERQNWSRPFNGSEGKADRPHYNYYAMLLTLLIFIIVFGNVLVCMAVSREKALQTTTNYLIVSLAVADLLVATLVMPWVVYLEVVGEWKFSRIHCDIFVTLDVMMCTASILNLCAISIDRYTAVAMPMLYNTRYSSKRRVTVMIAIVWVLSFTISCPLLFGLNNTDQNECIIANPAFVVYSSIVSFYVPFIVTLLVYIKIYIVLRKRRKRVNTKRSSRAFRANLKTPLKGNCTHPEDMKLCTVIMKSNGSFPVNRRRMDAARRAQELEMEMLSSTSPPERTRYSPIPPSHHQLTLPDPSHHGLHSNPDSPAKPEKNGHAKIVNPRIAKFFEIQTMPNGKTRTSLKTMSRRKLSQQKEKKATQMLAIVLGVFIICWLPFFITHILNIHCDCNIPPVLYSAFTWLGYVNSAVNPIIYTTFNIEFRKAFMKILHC

SMILES: Cc1nc2sccn2c(=O)c1CCN1CCC(=C(c2ccc(F)cc2)c2ccc(F)cc2)CC1 [Ritanserin]
- antidepressant effect and depressive symptoms of schizophrenia (in words) [1]: shown to be an antidepressant and to improve depressive symptoms of schizophrenia
- anxiolytic-like effect (in words) [2]: exert effects in an animal test reminiscent of anxiolytic drug activity
- quality of sleep (in words) [3]: shown to improve the quality of sleep
- relief of neuroleptic-induced parkinsonism (in words) [4]: found to relieve neuroleptic-induced parkinsonism

SMILES: O=C1NCCN1CCN1CCC(n2cc(-c3ccc(F)cc3)c3cc(F)ccc32)CC1 [Compound 4m, 5-Fluoro-3-(4-fluorophenyl)-1-[1-[2-(imidazolidin-2-on-1-yl)ethyl]-4-piperidyl]-1H-indole]
- pIC50 [5]: 8.49
- pIC50 [6]: 6.60

SMILES: Cc1ccc2c(c1)c(-c1ccc(F)cc1)c(C)n2C1CCN(C)CC1 [Compound 9a, 2,5-Dimethyl-3-(4-fluorophenyl)-1-(1-methyl-4-piperidyl)-1H-indole]
- pIC50 [5]: 8.28
- pIC50 [6]: 5.59

SMILES: O=C1NCCN1CCN1CCC(n2c(Br)c(-c3ccc(F)cc3)c3ccccc32)CC1 [Compound 4x, 2-Bromo-3-(4-fluorophenyl)-1-[1-[2-(imidazolidin-2-on-1-yl)ethyl]-4-piperidyl]-1H-indole]
- pIC50 [5]: 7.96
- pIC50 [6]: 6.19

SMILES: O=C1NCCN1CCN1CCC(n2cc(-c3ccc(F)cc3)c3ccccc32)CC1 [Compound 4k, 3-(4-Fluorophenyl)-1-[1-[2-(imidazolidin-2-on-1-yl)ethyl]-4-piperidyl]-1H-indole]
- pIC50 [5]: 8.51
- pIC50 [6]: 6.92

SMILES: Cc1c(-c2ccccc2)c2cc(Cl)ccc2n1C1=CCN(C)CC1 [Compound 6e, 5-Chloro-2-methyl-1-(1-methyl-1,2,3,6-tetrahydropyridin-4-yl)-3-phenyl-1H-indole, oxalate]
- pIC50 [5]: 8.03
- pIC50 [6]: 6.00

SMILES: Cc1ccc2c(c1)c(-c1ccc(F)cc1)cn2C1CCN(CCNC(=S)N(C)C)CC1 [Compound 13a, 1-[1-[2-(3,3-Dimethyl-1-thioureido)ethyl]-4-piperidyl]-3-(4-fluorophenyl)-5-methyl-1H-indole]
- pIC50 [5]: 8.43
- pIC50 [6]: 6.60

SMILES: CN1CCN(CCN2CCC(n3cc(-c4ccc(F)cc4)c4ccc(Cl)cc43)CC2)C1=O [Compound 4a, 6-Chloro-3-(4-fluorophenyl)-1-[1-[2-(3-methylimidazolidin-2-on-1-yl)ethyl]-4-piperidyl)-1H-indole, maleate]
- pIC50 [5]: 8.82
- pIC50 [6]: 7.34

SMILES: CC(C)N1CCN(CCN2CCC(n3cc(-c4ccc(F)cc4)c4ccc(Cl)cc43)CC2)C1=O [Compound 4c, 6-Chloro-3-(4-fluorophenyl)-1-[1-[2-[3-(2-propyl)imidazolidin-2-on-1-yl]ethyl]-4-piperidyl]-1H-indole, hydrochloride, hydrate]
- pIC50 [5]: 8.43
- pIC50 [6]: 7.38

SMILES: CC(C)N1CCN(CCN2CCC(n3cc(-c4ccc(F)cc4)c4cc(F)ccc43)CC2)C1=O [Compound 4n, 5-Fluoro-3-(4-fluorophenyl)-1-[1-[2-[3-(2-propyl)imidazolidin-2-on-1-yl]ethyl]-4-piperidyl]-1H-indole]
- pIC50 [5]: 8.51
- pIC50 [6]: 6.72

SMILES: Cc1ccc2c(c1)c(-c1ccc(F)cc1)cn2C1=CCN(C)CC1 [Compound 6d, 3-(4-Fluorophenyl)-5-methyl-1-(1-methyl-1,2,3,6-tetrahydropyridin-4-yl)-1H-indole, maleate]
- pIC50 [5]: 8.36
- pIC50 [6]: 7.49

SMILES: Cc1ccc2c(c1)c(-c1ccc(F)cc1)cn2C1=CCN(CCN2CCNC2=O)CC1 [Compound 6c, 3-(4-Fluorophenyl)-1-[1-[2-(imidazolidin-2-on-1-yl)ethyl]-1,2,3,6-tetrahydropyridin-4-yl]-5-methyl-1H-indole]
- pIC50 [5]: 8.85
- pIC50 [6]: 6.49

SMILES: Cc1ccc2c(c1)c(-c1ccc(F)cc1)cn2C1CCN(CCN2CCNC2=O)CC1 [Compound 4g, 3-(4-Fluorophenyl)-1-[1-[2-(imidazolidin-2-on-1-yl)ethyl]-4-piperidyl]-5-methyl-1H-indole]
- pIC50 [5]: 8.80
- pIC50 [6]: 6.04

SMILES: CC(C)N1CCN(CCN2CCC(n3cc(-c4ccc(F)cc4)c4cc(C(F)(F)F)ccc43)CC2)C1=O [Compound 4v, 3-(4-Fluorophenyl)-1-[1-[2-[3-(2-propyl)imidazolidin-2-on-1-yl]ethyl]-4piperidyl]-5-trifluoromethyl-1H-indole]
- pIC50 [5]: 7.96
- pIC50 [6]: < 6.00

SMILES: Cc1nc2n(c(=O)c1CCN1CCC(C(=O)c3ccc(F)cc3)CC1)CCS2 [setoperone]
- improvement of negative symptoms of schizophrenia (in words) [7]: blockade of 5-HT2 receptors may be related to improvement of negative symptoms of schizophrenia

SMILES: Cc1ccc2c(c1)c(-c1ccc(F)cc1)cn2C1CCN(CCN2CCN(C)C2=O)CC1 [Compound 4i, 3-(4-Fluorophenyl)-5-methyl-1-[1-[2-(3-methylimidazolidin-2-on-1-yl)ethyl]-4-piperidyl]-1H-indole, fumarate]
- pIC50 [5]: 8.85
- pIC50 [6]: 6.17

SMILES: CC(=O)N1CCN(CCN2CCC(n3cc(-c4ccc(F)cc4)c4cc(C)ccc43)CC2)C1=O [Compound 21a, 1-[1-[2-(3-Acetylimidazolidin-2-on-1-yl)ethyl]-4-piperidyl]-3-(4-fluorophenyl)-5-methyl-1H-indole, oxalate]
- pIC50 [5]: 7.74
- pIC50 [6]: 6.05

SMILES: Cc1ccc2c(c1)c(-c1ccc(F)cc1)cn2N1CCN(C)CC1 [Compound 20a, 3-(4-Fluorophenyl)-5-methyl-1-(1-methylpiperazin-4-yl)-1H-indole]
- pIC50 [5]: 7.89
- pIC50 [6]: 5.41

SMILES: CC(C)N1CCN(CCN2CCC(n3cc(-c4ccccc4)c4cc(Cl)ccc43)CC2)C1=O [Compound 4q, 5-Chloro-3-phenyl-1-[1-[2-[3-(2-propyl)imidazolidin-2-on-1-yl]ethyl]-4-piperidyl)-1H-indole]
- pIC50 [5]: 7.60
- pIC50 [6]: 5.52

SMILES: O=C1NCCN1CCN1CCC(n2cc(-c3ccccc3)c3cc(Cl)ccc32)CC1 [Compound 4p, 5-Chloro-3-phenyl-1-[1-[2-(imidazolidin-2-on-1-yl)ethyl]-4-piperidyl]-1H-indole]
- pIC50 [5]: 7.54
- pIC50 [6]: 5.55
